ChEMBL document CHEMBL1150236, “Dragonamides C and D, linear lipopeptides from the marine cyanobacterium brown Lyngbya polychroa” (2008)
Square brackets hold non-standard residues; d marks the D form. Peptide text beside a SMILES is read from it. * marks the point of attachment. NMeV = CN[C@H](C(=O)O)C(C)C; X1 = C#CCCC/C(=C\C(=O)*)OC; X2 = C#CCCCC(=O)CC(=O)*

Tests used:
Format in all cases: functional
U2OS = test: Cytotoxicity against human U2OS cells after 48 hrs by MTT assay
HT-29 = test: Cytotoxicity against human HT29 cells after 48 hrs by MTT assay; settings: HT-29, 48 h
IMR-32 = test: Cytotoxicity against human IMR32 cells after 48 hrs by MTT assay; settings: IMR-32, 48 h

SMILES	GI50 (U2OS) [µM]	GI50 (HT-29) [µM]	GI50 (IMR-32) [µM]
C#CCCC/C(=C\C(=O)N(C)[C@H](C(=O)N(C)[C@H](C(=O)N(C)[C@H](C(=O)N(C)[C@H](C(N)=O)C(C)C)C(C)C)C(C)C)C(C)C)OC [DRAGONAMIDE C] (X1-[NMeV][NMeV][NMeV][NMeV]-NH2)	56	22	49
C#CCCCC(=O)CC(=O)N(C)[C@H](C(=O)N(C)[C@H](C(=O)N(C)[C@H](C(=O)N(C)[C@H](C(N)=O)C(C)C)C(C)C)C(C)C)C(C)C [DRAGONAMIDE D] (X2-[NMeV][NMeV][NMeV][NMeV]-NH2)	59	32	51
